{"source": "patent US20250186472A1", "about": "“COMBINATION OF POH AND REMDESIVIR FOR TREATMENT OF CNS INFECTIONS” (NeOnc Technologies, Inc., priority 2020, published 2025)", "key": {"GL261 mouse glioma [1]": {"tested_on": "GL261 mouse glioma", "assay": "Anti-mouse PD-1 antibody therapeutic efficacy (survival) in intracranial syngeneic glioma", "type": "in vivo, C57 BL/6 mice", "conditions": "IC 40 μl 5% NEO100 and/or IV anti-PD1 2.5 mg/kg; treatment from day 7", "experimental": "100,000 GL261 mouse glioma cells were injected intracranially to immune competent mice, C57 BL/6. 7 days post the injection, the mice were randomly divided into 4 experimental groups, and initiated the treatment at the same day. • Group 1. Control: IV and Intracardiac injection of 40 μl Saline Solution (5). • Group 2. Antibody treated mice: IV 40 μl Anti-mouse PD1 antibody at the dose of 2.5 mg/kg (5). • Group 3. NEO100 treated mice: Intracardiac injection of 40 μl 5% NEO100(5). • Group 4. Combination of NEO100 and antibody treated mice: Intracardiac 40 μl 5% NEO100, followed by IV 40 μl Anti-PD1 antibody at the dose of 2.5 mg/kg (6).\nAnimal survival data were plotted using the Kaplan-Meier method. One-way ANOVA was used for the overall test for differences. Grouped comparisons were performed using the Tukey method of adjusting for multiple comparisons. Logrank (Mantel-Cox) test was applied for the comparison of survival curves. A statistical evaluation result of p<0.05 was considered significant. • Control vs IC NEO100+IV Anti-mouse PD-1: *** P<0.0003 • Control vs IV Anti-mouse PD-1: ns, p=0.31 • IV Anti-mouse PD-1 vs IC NEO100+IV Anti-mouse: ** P<0.005 • Control vs IC NEO100: ns, p=0.397"}, "GL261 mouse glioma [2]": {"tested_on": "GL261 mouse glioma", "assay": "NEO100-mediated human CAR T cell delivery to brain and tumor (CD3 IHC)", "type": "in vivo", "experimental": "2-million CD19 and Lym-1 human CAR T cells that were suspended in 0.9% saline working solution to be used for the IV injection with and without intracardiac NEO100.\nPreparation of the working solution for intracardiac injection of NEO100: 3% NEO100 suspended in 0.9% saline.\n40 μl 3% NEO100 in saline was injected slowly to complete intracardiac application. Direct cell injection into the heart could cause local microinfaractions if the cells are clumpy during injection, hemopericardium and death as a consequence. This is why ultrasound guided injections with a small 30 G needle is important to minimize these potential adverse effects, (1) enabling the visualization of the needle tract to ensure that the needle enters the left ventricle only, and (2) subsequent monitoring of the heart through not only ECG but visualization of heart wall function after the injection. The fine gauge of the needle ensures that the cells are not clumpy when the cells are injected through intracardiac puncture.\nImmediate after the completion of NEO100 injection, 2 million human CAR T cells in 40 μl PBS were injected through tail vein catheter that pre-primed with saline solution. To avoid the possible adverse effects mentioned above by direct cell injection through intracardiac application, we set up 2-step procedures for the study.\nStep 1: 40 μl 3% NEO100 in saline was injected slowly to complete intracardiac application. This procedure allows NEO100 to exert the function of BBB disruption.\nStep 2:2-million CAR T cells were injected by IV through tail vein catheter.\nBrain Perfusion—In order to rule out the residue left over inside the blood vessel after euthanizing, the testing animals were perfused by 10 ml 0.9% normal saline solution through left ventricle to flush out the blood.\nConfocal Imaging—8 UM fresh frozen sections were made by cryostasis machine and pasted on microslide. Coverslip was mounted on the brain section by DAPI mounting medium before Confocal examination. […]"}, "[3]": {"tested_on": "Madin-Darby Canine Kidney (MDCK) cells", "assay": "In vitro BBB tight junction model (Transwell, TEER, fluorescent antibody)", "type": "cell-based", "experimental": "The labelled components are Transwell chemotaxis chamber; upper chamber; porous membrane and lower chamber. Transwell culture chambers (pore size: 0.8 μm). Madin-Darby Canine Kidney (MDCK) cells are epithelial cells. TEER: transepithelial/transendothelial electrical resistance. Fluorescence Ab: Alexa Fluo®488; donkey anti-rat IgG (H+L). Fluorescence was measured in the lower chamber in about 120 minutes."}, "[4]": {"tested_on": "BBB in an in vitro BBB model", "assay": "In vitro BBB model, remdesivir transport across Transwell", "type": "cell-based", "conditions": "POH 1.5 mM; POH-Remdesivir vs H2O-Remdesivir in upper chamber; 4 hours", "experimental": "For the in vitro, cells were plated in the upper chamber of a Transwell. The POH-Remdesivir or H2O-Remdesivir mixture was placed in the upper chamber. POH was at a concentration of 1.5 mM. The media from both upper and lower chambers were collected after 4 hours and quantitated for remdesivir."}, "[5]": {"tested_on": "recurrent malignant gliomas", "conditions": "intranasal delivery, cited from earlier work"}}, "note": "Entries after “also recorded” stand apart in the source; their conditions may differ."}
{"smiles": "C=C(C)[C@@H]1CC=C(CO)CC1", "note": "[NEO100, perillyl alcohol]", "values": [{"measurement": "disturbance of the BBB (Evans Blue uptake into brain)", "setting": "blood-brain-barrier; 1:1000 dilution (6.5 mM 40 μl) IC, then IV 2% Evans Blue", "result": "still effective to disturb the BBB"}, {"measurement": "dopamine delivery to brain", "setting": "blood-brain-barrier; intracardiac NEO100", "result": "mediated dopamine delivery through the breached blood-brain-barrier"}, {"measurement": "opening of the BBB for antibodies", "setting": "blood-brain-barrier; intracardiac injection (equivalent to intra-arterial injection for mice)", "result": "could open the BBB for antibodies"}, {"measurement": "tight junction in the brain", "setting": "blood-brain-barrier; intracardiac injection of 5% NEO100 compared to normal brain", "result": "breached dramatically"}, {"measurement": "safety of intraarterial administration", "setting": "blood-brain-barrier; mouse, in vivo", "result": "safe"}, {"measurement": "animal survival", "setting": "GL261 mouse glioma [1]", "result": "dead"}, {"measurement": "severe adverse effect or animal death", "setting": "GL261 mouse glioma [2]; 3% NEO100 intracardiac injection, 40 μl", "result": "does not cause any severe adverse effect or animal death"}, {"measurement": "penetration of human CAR T cells into the tumor formed inside the brain", "setting": "GL261 mouse glioma [2]; IC 3% NEO100 then IV 2 million anti-CD19 or Lym-1 CAR T cells, compared to IV only, 6 h", "result": "greatly increase the penetration"}, {"measurement": "CD3 positive cells in the normal parts of brain", "setting": "GL261 mouse glioma [2]; IC NEO100 vs IV injection only samples", "result": "More CD3 positive cells"}, {"measurement": "penetration of fluorescence labelled antibody across in vitro BBB model", "setting": "[3]; Alexa Fluor 488 donkey anti-rat IgG, lower chamber at about 120 minutes", "result": "transiently allow labeled antibodies to transiently cross it; also recorded: enhanced penetration"}, {"measurement": "TEER", "setting": "[3]; NEO100 2 mM", "result": "decreased"}, {"measurement": "delivery of remdesivir across the BBB", "setting": "[4]", "result": "very efficient"}, {"measurement": "treated patients achieving 6 month progression-free period", "setting": "[5]; 140 treated patients", "result": 50, "unit": "%"}, {"measurement": "disease remission, several patients", "setting": "[5]", "result": "≤ 3", "unit": "years"}, {"measurement": "disease response", "setting": "[5]", "result": "regression or stabilization of the disease"}, {"measurement": "side effects from the treatment", "setting": "[5]", "result": "almost non-existent"}]}
